34 compounds from patent US20230135635A1, “INHIBITORS OF ULK1/2 AND METHODS OF USING SAME” (SALK INSTITUTE FOR BIOLOGICAL STUDIES, priority 2020, published 2023) can be followed below.

One may read the IC50 as the concentration at which inhibition is half-maximal.

The target in the first test is T1, recombinant human ULK1 protein (1-649) (Homo sapiens, UniProt O75385).
T1 construct: recombinant human ULK1 protein (1-649, SignalChem #U01-11G); purchased SignalChem U01-11G
T1 sequence (O75385 1-649): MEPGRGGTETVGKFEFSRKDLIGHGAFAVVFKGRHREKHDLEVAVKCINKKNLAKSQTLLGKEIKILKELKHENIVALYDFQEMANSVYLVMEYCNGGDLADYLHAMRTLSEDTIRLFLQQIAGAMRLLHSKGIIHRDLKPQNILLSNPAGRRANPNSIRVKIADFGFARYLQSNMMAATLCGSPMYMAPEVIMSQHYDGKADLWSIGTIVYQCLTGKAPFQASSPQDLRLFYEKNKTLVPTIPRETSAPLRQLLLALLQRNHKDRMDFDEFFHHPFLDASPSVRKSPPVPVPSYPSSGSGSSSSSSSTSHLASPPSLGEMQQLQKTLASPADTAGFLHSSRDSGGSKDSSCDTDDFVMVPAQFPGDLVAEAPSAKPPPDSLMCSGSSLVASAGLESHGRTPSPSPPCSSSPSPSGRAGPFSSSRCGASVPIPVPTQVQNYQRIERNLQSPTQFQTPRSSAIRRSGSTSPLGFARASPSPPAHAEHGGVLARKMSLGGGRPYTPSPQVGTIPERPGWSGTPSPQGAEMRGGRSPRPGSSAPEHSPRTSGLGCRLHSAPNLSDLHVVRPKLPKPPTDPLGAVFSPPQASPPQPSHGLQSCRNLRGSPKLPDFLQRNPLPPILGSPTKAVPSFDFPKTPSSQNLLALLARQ
Nature of the test: ULK1 inhibition assay (ADP Glo). Format: biochemical. Conditions: Table 1; 25 uM ATP, MBP substrate, one hour. The method, boiled down: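 Recombinant ULK1 (2 ug/mL) phosphorylated myelin basic protein (80 ug/mL) at 25 uM ATP; ADP formed was detected by ADP-Glo after 1 h. Compounds ran in triplicate, 16-dose 3-fold serial dilution from 30 uM, to give IC50.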
A general note: ADP-Glo turns the ADP formed in a reaction into a luminescent signal.
`CCN(CC)C(=O)N1CCc2cc(Nc3ncc(C(F)(F)F)c(NC4CC4)n3)ccc2C1` [Compound A10]: the IC50 lay within 0.001 to 0.01 µM.
Take `CNCC(=O)N1CCc2ccc(Nc3ncc(Br)c(Nc4ccccc4C(=O)NC)n3)cc2C1` [Compound A153, 2-{5-Bromo-2-[2-(2-methylamino-acetyl)-1,2,3,4-tetrahydro-isoquinolin-7-ylamino]-pyrimidin-4-ylamino}-N-methyl-benzamide]: the IC50 was greater than 0.01 µM.
As to `CNC(=O)c1ccccc1Nc1nc(Nc2ccc3c(c2)CCN(C(=O)N2CCN(C)CC2)C3)ncc1Br` [Compound A128, 2-{5-Bromo-2-[2-(4-methyl-piperazine-1-carbonyl)-1,2,3,4-tetrahydro-isoquinolin-6-ylamino]-pyrimidin-4-ylamino}-N-methyl-benzamide], the IC50 was greater than 0.01 µM.
Still for that read-out and setting: the result for `NCCC(=O)N1CCc2cc(Nc3ncc(C(F)(F)F)c(NC4CC4)n3)ccc2C1` [Compound A31] reads less than 0.001 µM.
As for `FC(F)(F)c1cnc(Nc2ccc3c(c2)CN(Cc2ccco2)CC3)nc1NC1CC1` [Compound A89], the IC50 lay in the range of 0.001 to 0.01 µM.
Same read-out and setting: next, `FC(F)(F)c1cnc(Nc2ccc3c(c2)CCN(CC2CNC2)C3)nc1NC1CC1` [Compound A41]: less than 0.001 µM; `COCCN1CCc2cc(Nc3ncc(C(F)(F)F)c(NC4CC4)n3)ccc2C1` [Compound A50]: less than 0.001 µM; `O=C(CCO)N1CCc2cc(Nc3ncc(C(F)(F)F)c(NC4CC4)n3)ccc2C1` [Compound A68]: less than 0.001 µM.
Same read-out and setting: next, `O=C(O)CCN1CCc2ccc(Nc3ncc(C(F)(F)F)c(NC4CC4)n3)cc2C1` [Compound A88]: 0.001 to 0.01 µM; `CNC(=O)c1ccccc1Nc1nc(Nc2ccc3c(c2)CCN(Cc2ccc(OC)cc2)C3)ncc1Br` [Compound A129, 2-{5-Bromo-2-[2-(4-methoxy-benzyl)-1,2,3,4-tetrahydro-isoquinolin-6-ylamino]-pyrimidin-4-ylamino}-N-methyl-benzamide]: greater than 0.01 µM.
In the case of `CNC(=O)c1ccccc1Nc1nc(Nc2ccc3c(c2)CN(C(=O)[C@@H](N)CO)CC3)ncc1Br` (racemic) [Compound A154, 2-{2-[2-(2-Amino-3-hydroxy-propionyl)-1,2,3,4-tetrahydro-isoquinolin-7-ylamino]-5-bromo-pyrimidin-4-ylamino}-N-methyl-benzamide], the IC50 is greater than 0.01 µM.
As to `NCC(=O)N1CCc2ccc(Nc3ncc(C(F)(F)F)c(NC4CC4)n3)cc2C1` [Compound A83], the IC50 was in the range of 0.001 to 0.01 µM.
Still for that read-out and setting: next, `CS(=O)(=O)N1CCc2ccc(Nc3ncc(C(F)(F)F)c(NC4CC4)n3)cc2C1` [Compound A104]: 0.001 to 0.01 µM; `CNC(=O)c1ccccc1Nc1nc(Nc2ccc3c(c2)CN(Cc2ccncc2)CC3)ncc1Br` [Compound A162, 2-[5-Bromo-2-(2-pyridin-4-ylmethyl-1,2,3,4-tetrahydro-isoquinolin-7-ylamino)-pyrimidin-4-ylamino]-N-methyl-benzamide]: greater than 0.01 µM.
Same read-out and setting: the result for `CC(C)(C)OC(=O)N1CCc2cc(Nc3ncc(N)c(NC4CC4)n3)ccc2C1` [Compound A22] reads greater than 0.01 µM; that for `CNCC(=O)N1CCc2cc(Nc3ncc(Br)c(Nc4ccccc4C(=O)NC)n3)ccc2C1` [Compound A133, 2-{5-Bromo-2-[2-(2-methylamino-acetyl)-1,2,3,4-tetrahydro-isoquinolin-6-ylamino]-pyrimidin-4-ylamino}-N-methyl-benzamide], greater than 0.01 µM; that for `COCCN1CCc2cc(Nc3ncc(C(F)(F)F)c(N4CCc5ccccc54)n3)ccc2C1` [Compound A123, N-(4-(Indolin-1-yl)-5-(trifluoromethyl)pyrimidin-2-yl)-2-(2-methoxyethyl)-1,2,3,4-tetra-hydroisoquinolin-6-amine], greater than 0.01 µM.
Turning to `CNC(=O)c1ccccc1Nc1nc(Nc2ccc3c(c2)CCN(Cc2ccccn2)C3)ncc1Br` [Compound A144, 2-[5-Bromo-2-(2-pyridin-2-ylmethyl-1,2,3,4-tetrahydro-isoquinolin-6-ylamino)-pyrimidin-4-ylamino]-N-methyl-benzamide], the IC50 was greater than 0.01 µM.
Still for that read-out and setting: the result for `Cn1nccc1CN1CCc2cc(Nc3ncc(C(F)(F)F)c(NC4CC4)n3)ccc2C1` [Compound A63] reads less than 0.001 µM.
With `O=C(O)CCN1CCc2cc(Nc3ncc(C(F)(F)F)c(NC4CC4)n3)ccc2C1` [Compound A7], the IC50 is less than 0.001 µM.
On the same count and under the same terms, next, `CCOC(=O)c1cnc(Nc2ccc3c(c2)CCN(C(=O)OC(C)(C)C)C3)nc1NC1CC1` [Compound A28]: greater than 0.01 µM.

The test is the same for the next values; noted with them: Table 2.
As for `CNC(=O)c1ccccc1Oc1nc(Nc2ccc3c(c2)OCCO3)ncc1C(F)(F)F` [Compound B51, 2-((2-((2,3-Dihydrobenzo[b][1,4]dioxin-6-yl)amino)-5-(trifluoromethyl)pyrimidin-4-yl)oxy)-N-methylbenzamide], the IC50 was greater than 1 µM.
Turning to `COc1cc(Nc2ncc(Br)c(Oc3ccccc3C(=O)N3CCN(C)CC3)n2)cc(OC)c1OC` [Compound B44], the IC50 was greater than 1 µM.
Still for that read-out and setting: next, `COC(=O)c1ccccc1Oc1nc(Nc2ccc3c(c2)COC3)ncc1Br` [Compound B33]: greater than 1 µM; `COc1cc(Nc2ncc(Br)c(Oc3ccccc3C(=O)N(C)O)n2)cc(OC)c1OC` [Compound B15]: less than 0.1 µM.
Turning to `COC(=O)c1ccccc1Oc1nc(Nc2ccc3[nH]cnc3c2)ncc1Br` [Compound B22], the IC50 is greater than 1 µM.
On the same count and under the same terms, the result for `COc1cc(Nc2ncc(Br)c(Oc3ccccc3C(=O)NCCN(C)C)n2)cc(OC)c1OC` [Compound B7] reads greater than 1 µM.
Same read-out and setting: the result for `COC(=O)c1ccccc1Oc1nc(Nc2cccc(OC(F)(F)F)c2)ncc1Br` [Compound B40] reads greater than 1 µM; that for `COC(=O)c1ccccc1Oc1ncnc(Nc2cc(OC)c(OC)c(OC)c2)n1` [Compound B48], greater than 1 µM.

The test is the same for the next values; noted with them: Table 3.
For the compound `C#CCN1CCN(c2ccc(Nc3ncc(Br)c(Nc4ccccc4C(=O)NC)n3)cc2)CC1` [Compound E25, 2-((5-Bromo-2-((4-(4-(prop-2-yn-1-yl)piperazin-1-yl)phenyl)amino)pyrimidin-4-yl)amino)-N-methylbenzamide], the IC50 is 0.005 to 0.1 µM.
With `CNC(=O)c1ccccc1Nc1nc(Nc2ccc(OC(F)F)cc2)ncc1Br` [Compound E18, 2-((5-Bromo-2-((4-(difluoromethoxy)phenyl)amino)pyrimidin-4-yl)amino)-N-methylbenzamide], the IC50 is greater than 0.1 µM.
Consider `O=C(Nc1ccc(Nc2ncc(Br)c(Nc3ccccc3CO)n2)cc1)C1CC1` [Compound C12], for which the IC50 was less than 0.005 µM.
In the case of `COc1cc(Nc2ncc(Br)c(Nc3ccccc3CN(CCO)CCO)n2)cc(OC)c1OC` [Compound C27], the IC50 lay within 0.005 to 0.1 µM.
The same measure, in the same setting: the result for `O=C(NCc1ccc(Nc2ncc(C(F)(F)F)c(NC3CC3)n2)cc1)OCc1ccccc1` [Compound D2] reads less than 0.005 µM.
